Like-named read-outs stand apart in the source and are kept apart here.
Legend:
5HT₂-Rezeptor = 5HT₂-Rezeptor (Homo sapiens, UniProt P28223); experiment: 3H-Metanserin binding test (test method d)
5HT1A-Rezeptor = target: T1, 5HT1A-Rezeptor (Homo sapiens, UniProt P08908); experiment: 3H-8-OH-DPAT binding test (test method a)
T1 sequence (P08908 1-422): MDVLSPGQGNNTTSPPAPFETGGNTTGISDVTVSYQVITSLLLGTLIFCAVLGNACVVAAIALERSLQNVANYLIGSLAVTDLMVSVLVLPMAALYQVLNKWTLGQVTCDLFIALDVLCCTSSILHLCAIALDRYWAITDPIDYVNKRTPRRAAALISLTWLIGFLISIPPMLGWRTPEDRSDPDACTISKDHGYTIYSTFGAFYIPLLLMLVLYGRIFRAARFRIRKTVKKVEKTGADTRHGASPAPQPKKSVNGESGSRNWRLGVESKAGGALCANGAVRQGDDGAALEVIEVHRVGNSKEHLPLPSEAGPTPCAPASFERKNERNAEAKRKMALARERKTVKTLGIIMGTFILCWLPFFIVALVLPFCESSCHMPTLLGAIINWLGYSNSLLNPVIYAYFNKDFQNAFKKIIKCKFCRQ

5HT1C-Rezeptor = 5HT1C-Rezeptor (Homo sapiens, UniProt P28335); experiment: 3H-Mesulergin binding test (test method c)
Chain of 5HT1C-Rezeptor (P28335 33-458): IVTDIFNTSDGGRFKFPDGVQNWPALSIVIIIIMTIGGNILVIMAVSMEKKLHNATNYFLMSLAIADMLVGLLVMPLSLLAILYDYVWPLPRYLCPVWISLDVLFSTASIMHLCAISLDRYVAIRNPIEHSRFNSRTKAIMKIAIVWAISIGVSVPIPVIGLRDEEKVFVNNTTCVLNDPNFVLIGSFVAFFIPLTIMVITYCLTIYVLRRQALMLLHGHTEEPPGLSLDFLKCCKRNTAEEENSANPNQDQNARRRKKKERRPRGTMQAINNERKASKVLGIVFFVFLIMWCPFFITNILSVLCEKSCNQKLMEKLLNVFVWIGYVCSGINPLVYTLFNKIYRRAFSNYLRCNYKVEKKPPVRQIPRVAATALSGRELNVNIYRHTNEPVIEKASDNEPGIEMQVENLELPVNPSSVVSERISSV

5HT₂-Rezeptoren = target: T2, 5HT₂-Rezeptoren (Rattus norvegicus, UniProt P14842); experiment: Antagonism of Quipazine-induced head shakes; format: in vivo, Ratte; details: Quipazine-pretreated, dose inhibiting number of head shakes within 45 min by 50%
T2 construct: from tissue; host or cells: living rat (whole animal)
T2 sequence (P14842 whole entry): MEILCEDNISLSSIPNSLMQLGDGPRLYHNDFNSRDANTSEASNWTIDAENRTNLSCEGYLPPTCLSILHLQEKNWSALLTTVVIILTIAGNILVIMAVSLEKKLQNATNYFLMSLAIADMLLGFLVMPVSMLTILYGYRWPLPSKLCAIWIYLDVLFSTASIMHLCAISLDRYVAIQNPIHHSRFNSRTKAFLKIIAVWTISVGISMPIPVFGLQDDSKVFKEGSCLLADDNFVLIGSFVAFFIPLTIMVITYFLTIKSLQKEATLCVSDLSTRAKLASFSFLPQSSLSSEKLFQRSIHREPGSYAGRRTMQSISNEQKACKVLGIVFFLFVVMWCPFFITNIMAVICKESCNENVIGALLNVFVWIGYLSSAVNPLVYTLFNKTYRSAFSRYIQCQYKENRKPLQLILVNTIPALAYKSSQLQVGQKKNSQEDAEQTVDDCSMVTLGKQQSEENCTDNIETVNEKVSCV

5HT1c-Rezeptoren = target: T3, 5HT1c-Rezeptoren (Rattus norvegicus, UniProt P08909); experiment: Antagonism of mCPP-induced penile erections; format: in vivo, Ratte; details: mCPP-pretreated, dose inhibiting number of penile erections within 45 min by 50%
T3 construct: from tissue; host or cells: living rat (whole animal)
T3 sequence (P08909 33-460): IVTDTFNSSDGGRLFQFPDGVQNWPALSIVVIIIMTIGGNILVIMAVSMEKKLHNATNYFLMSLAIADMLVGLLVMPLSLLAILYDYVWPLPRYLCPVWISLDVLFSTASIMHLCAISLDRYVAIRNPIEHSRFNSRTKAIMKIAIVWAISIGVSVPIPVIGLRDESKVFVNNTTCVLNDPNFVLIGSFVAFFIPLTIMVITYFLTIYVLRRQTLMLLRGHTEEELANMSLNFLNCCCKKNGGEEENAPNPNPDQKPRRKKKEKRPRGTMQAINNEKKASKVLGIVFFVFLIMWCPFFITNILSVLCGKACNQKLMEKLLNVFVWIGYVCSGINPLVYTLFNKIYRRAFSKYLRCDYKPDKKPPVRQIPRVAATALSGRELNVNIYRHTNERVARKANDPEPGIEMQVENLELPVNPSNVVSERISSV

[1] = Testmethode d, concentration displacing 50% of receptor-bound ligand (3H-Metanserin), read-out: IC₅₀
[2] = Testmethode c, concentration displacing 50% of receptor-bound ligand (3H-Mesulergin), read-out: IC₅₀
[3] = Testmethode a, concentration displacing 50% of receptor-bound ligand (3H-8-OH-DPAT), read-out: IC₅₀

Chain of 5HT₂-Rezeptor (P28223 whole entry): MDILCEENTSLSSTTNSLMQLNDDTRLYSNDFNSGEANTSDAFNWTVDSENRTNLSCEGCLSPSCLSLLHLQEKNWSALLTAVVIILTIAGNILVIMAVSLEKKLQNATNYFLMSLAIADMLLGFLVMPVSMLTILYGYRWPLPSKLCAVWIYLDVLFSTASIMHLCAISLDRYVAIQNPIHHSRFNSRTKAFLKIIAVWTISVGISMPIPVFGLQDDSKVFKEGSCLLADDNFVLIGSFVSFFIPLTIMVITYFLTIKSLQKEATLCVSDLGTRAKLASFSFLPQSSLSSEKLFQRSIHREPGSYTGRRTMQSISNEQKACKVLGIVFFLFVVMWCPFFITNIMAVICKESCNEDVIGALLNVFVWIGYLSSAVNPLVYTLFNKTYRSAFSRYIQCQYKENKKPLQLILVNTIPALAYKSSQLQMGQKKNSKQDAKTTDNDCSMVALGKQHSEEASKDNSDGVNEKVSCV

| SMILES | IC50 (5HT₂-Rezeptor; [1]) [nM] | IC50 (5HT1A-Rezeptor) [nM] | IC50 (5HT1C-Rezeptor; [2]) [nM] | IC50 (5HT1A-Rezeptor; [3]) [nM] | IC50 (5HT1C-Rezeptor) [nM] | IC50 (5HT₂-Rezeptor) [nM] | ID₅₀ (5HT₂-Rezeptoren) [mg/kg. s.c.] | ID₅₀ (5HT1c-Rezeptoren) |
| --- | --- | --- | --- | --- | --- | --- | --- | --- |
| COc1c2n(c3cc(Cl)cc(Cl)c13)CCNC2 [Substanz L, 7,9-Dichlor-1,2,3,4-tetrahydro-10-methoxy-pyrazino[1,2-a]indol] | 5850 | 459 | 251 |  |  |  |  |  |
| COc1c2n(c3ccccc13)CCNC2 [Substanz A, 10-Methoxy-1,2,3,4-tetrahydropyrazino[1,2-a]-indol] |  |  |  | 687 |  |  |  |  |
| COc1c2n(c3ccc(Cl)cc13)CCNC2 [Substanz D, 8-Chlor-1,2,3,4-tetrahydro-10-methoxy-pyrazino[1,2-a]-indol] | 3140 | 657 |  |  | 195 |  |  |  |
| Cc1nc2ccccn2c(=O)c1CCN1CCC(C(=O)c2ccc(F)cc2)CC1 [Pirenperon, reference compound] | 2.9 | 2870 |  |  | 37 |  |  |  |
| COc1c2n(c3cccc(C(F)(F)F)c13)CCNC2 [Substanz J, 9-Trifluormethyl-1,2,3,4-tetrahydro-10-methoxy-pyrazino[1,2-a]-indol] | 374 | 512 | 66 |  |  |  |  |  |
| COc1c2n(c3cccc(Br)c13)CCNC2 [Substanz E, 9-Brom-1,2,3,4-tetrahydro-10-methoxy-pyrazino[1,2-a]indol] |  | 407 |  |  | 83.8 | 1020 | 3.1 | 4.3 mg/kg, s.c. |
| COc1c2n(c3ccc(Br)cc13)CCNC2 [Substanz G, 8-Brom-1,2,3,4-tetrahydro-10-methoxy-pyrazino[1,2-a]indol] | 2810 | 298 | 269 |  |  |  |  |  |
| COc1ccc2[nH]cc(C3=CCNCC3)c2c1 [RU 24969, reference compound] |  | 8 |  |  |  |  |  |  |
| COc1c2n(c3ccc(F)cc13)CCNC2 [Substanz B, 8-Fluor-1,2,3,4-tetrahydro-10-methoxy-pyrazino[1,2-a]-indol] |  | 2370 |  |  | 367 | 9390 |  | 4.2 mg/kg, s.c. |
| Clc1cccc(N2CCNCC2)c1 [mCPP, reference compound] |  | 227 |  |  |  |  |  |  |
| COc1c2n(c3cccc(C)c13)CCNC2 [Substanz I, 1,2,3,4-Tetrahydro-10-methoxy-9-methyl-pyrazino[1,2-a]indol] | 2270 |  | 219 | 106 |  |  | 3.0 | 2.7 mg/kg, s.c. |
| CSc1c2n(c3ccccc13)CCNC2 [Substanz K, 1,2,3,4-Tetrahydro-10-methylthiopyrazino[1,2-a]-indol] |  |  |  | 705 |  |  |  |  |
| COc1c2n(c3c(Br)cccc13)CCNC2 [Substanz M, 6-Brom-1,2,3,4-tetrahydro-10-methoxy-pyrazino[1,2-a]indol] | 3030 | 690 | 923 |  |  |  |  |  |
| COc1c2n(c3cccc(F)c13)CCNC2 [Substanz C, 9-Fluor-1,2,3,4-tetrahydro-10-methoxy-pyrazino[1,2-a]indol] |  | 1070 |  |  | 221 | 5170 |  | 17.0 mg/kg, s.c. |
| COc1c2n(c3ccc(F)c(Cl)c13)CCNC2 [Substanz H, 9-Chlor-8-fluor-1,2,3,4-tetrahydro-10-methoxy-pyrazino[1,2-a]indol] | 1030 | 354 | 90.5 |  |  |  |  |  |
| COc1ccccc1N1CCN(CCCCN2C(=O)c3ccccc3C2=O)CC1 [NAN-190, reference compound] |  |  | 1800 |  |  | 581 |  |  |
| O=c1ccc2[nH]cc(C3=CCNCC3)c2[nH]1 [CP 93129, reference compound] |  | 1620 |  |  |  | 29200 |  |  |
| Cc1nc2sccn2c(=O)c1CCN1CCC(=C(c2ccc(F)cc2)c2ccc(F)cc2)CC1 [Ritanserin, reference compound] |  |  | 37 |  |  |  |  |  |
| COc1c2n(c3cc(Cl)ccc13)CCNC2 [Substanz F, 7-Chlor-1,2,3,4-tetrahydro-10-methoxy-pyrazino[1,2-a]indol] | 9460 | 425 | 406 |  |  |  |  |  |
| Fc1ccc2c(cc3n2CCNC3)c1Cl [Substanz N, 9-Chlor-8-fluor-1,2,3,4-tetrahydropyrazino[1,2-a]indol] | 902 | 964 | 57 |  |  |  | 5.2 | 4.2 mg/kg, s.c. |
